# From US20230365643A1, “PEPTIDE, AND COSMETIC COMPOSITION AND PHARMACEUTICAL COMPOSITION COMPRISING SAME” (SEOUL NATIONAL UNIVERSITY HOSPITAL, priority 2020, published 2023)
# Where a SMILES comes first, the peptide text is derived from it. [ ]: non-standard residue; d: D form.
# How the values were obtained:
# [1] = Stability in mouse whole blood (LC-QTOF MS); format: in vitro ADME; conditions: peptide 1 mg/ml; 0, 15, 30, 60, 120 minutes; compared to P5 control (FIG. 3)
# Experimental: Mouse whole blood was treated with peptide (1 mg/ml) and reacted for 0, 15, 30, 60, and 120 minutes, followed by analyzing the peptides remaining as LC-QTOF MS.
# [2] = Determination of solubility; format: physicochemical
# Experimental: To 5 mg of each of the peptides synthesized by the above method, a small amount of water or butylene glycol was added to measure solubility.
# [3] = test system: C57BL/6 mice; assay: Hair growth promoting efficacy in mice; format: in vivo, mouse; conditions: lower back skin, once a day, after about 4 weeks; P5N 0.1 mM, P5 0.05 and 0.1 mM, MNX 3% (FIG. 11)
# From the text: It is known that all the hairs of a mouse go through a process in which the hair enters the resting phase at 7 to 8 weeks of age and is converted back to the growing phase. Accordingly, the effect of the peptide of the present invention on the growth phase inducing process was confirmed using C57BL/6 mice. Specifically, 3% of minoxidil (MNX), which is commonly used as a treatment for hair loss and hair growth, on the skin of the lower back of the mouse, the existing adiponectin-derived peptide […] NO: 2), […] and 0.1 mM), and the present peptide […] NO: 2)-NH2) were applied at 0.1 mM concentration, respectively, once a day. Thereafter, hair growth was investigated. As a result, in the group treated with the peptide of the present invention as in the positive controls, it was confirmed […], after about 4 weeks, a proportion of the region where hair was grown in the growth phase among the region where hair was first removed is increased (FIG. 11).
# [4] = test system: sensitive skin; assay: Sensitive skin improvement, double-blind application study (lactate test, biopsy); format: in vivo, human; conditions: for proportion of test group improved from sensitive skin to non-sensitive skin: 0.01%, 27 persons per group
# From the text: In order to classify patients with sensitive skin, a double-blind organ application study was executed by conducting the lactate puncture test (Contact Dermatitis 2010; 62: 137-49), which is the most widely used and known reliable test for diagnosis of sensitive skin (a total of 54 persons, the peptide of the present invention PSN: GLYYF(SEQ ID NO: 2)-NH2 (APNSN) 0.01% vs control (placebo), 27 persons per application group). From the volunteers who agreed to the biopsy (peptide PSN: GLYYF(SEQ ID NO: 2)-NH2 (APNSN) of the present invention 0.01% vs control material (placebo), 8 persons per application group), the skin tissues at the facial baseline and the skin tissues after 8 weeks application were obtained from total 4 sites (for 2 sites per each) by 2 mm punch. For the obtained skin tissues, quantitative PCR analysis and immunohistochemistry were performed for sensitive skin-related genes and markers including adiponectin. […] Further, at the second visit, it could be seen that 29.6% of the test group was improved from the sensitive skin to the non-sensitive skin. […] There was no significant difference between the above two groups (p=0.327, fisher's exact test). Further, at the 3rd visit, the initial sensitive skin improved to non-sensitive skin in 48.1% of the test group, whereas only 14.8% of the control improved to non-sensitive skin, which is the same as at the 2nd visit. […] Further, since the expression of adiponectin was reduced in the patients having sensitive skin, a change in adiponectin gene expression after APNSN treatment could be an important indicator of sensitivity improvement. Therefore, as a result of confirming the expression of adiponectin, the sub-signaling factor P-AMPK of adiponectin and the sensitivity inducing factor TRPV1 (FIG. 10) through biopsy, the expression adiponectin and P-AMPK was increased after application in the test group containing APNSN, whereas the expression of TRPV1 was decreased. […] On the other hand, there was no statistically significant change in the expression of adiponectin in the control after application of the control material.
# [5] = water : butylene glycol mixture, Solvent H2O: BG, mixed solvent
# [6] = Solvent BG (butylene glycol), single solvent
# [7] = biopsy after application (FIG. 10)
smiles,measurement,setting,value
"CC(C)C[C@H](N)C(=O)N[C@@H](Cc1ccc(O)cc1)C(=O)N[C@H](Cc1ccc(O)cc1)C(=O)N[C@@H](Cc1ccccc1)C(=O)O [Peptide P4-4, LYyF (SEQ ID NO: 1)] (H-LY[dY]F-OH; N-terminus assumed)",stability (peptides remaining),[1],improved stability
"CC(C)C[C@H](N)C(=O)N[C@@H](Cc1ccc(O)cc1)C(=O)N[C@@H](Cc1ccc(O)cc1)C(=O)N[C@H](Cc1ccccc1)C(=O)O [Peptide P4-5, LYYf (SEQ ID NO: 1)] (H-LYY[dF]-OH; N-terminus assumed)",solubility,"[2]; water, Solvent H2O, single solvent",2500 µg/mL
"CC(C)C[C@@H](N)C(=O)N[C@@H](Cc1ccc(O)cc1)C(=O)N[C@@H](Cc1ccc(O)cc1)C(=O)N[C@@H](Cc1ccccc1)C(N)=O [Peptide P4-6, lYYF (SEQ ID NO: 1)-NH2] (H-[dL]YYF-NH2)",solubility,[2]; [5],4000 µg/mL
"CC(C)C[C@H](N)C(=O)N[C@@H](Cc1ccc(O)cc1)C(=O)N[C@@H](Cc1ccc(O)cc1)C(=O)N[C@H](Cc1ccccc1)C(N)=O [Peptide P4-9, LYYf (SEQ ID NO: 1)-NH2] (H-LYY[dF]-NH2)",solubility,[2]; [5],4000 µg/mL
"CC(C)C[C@H](NC(=O)CN)C(=O)N[C@@H](Cc1ccc(O)cc1)C(=O)N[C@@H](Cc1ccc(O)cc1)C(=O)N[C@@H](Cc1ccccc1)C(=O)O [Peptide P5, GLYYF (SEQ ID NO: 2), reference compound]",solubility,"[2]; ethanol : propylene glycol mixture, Solvent EtOH: PG (propylene glycol), mixed solvent",1000 µg/mL
same,proportion of the region where hair was grown in the growth phase,[3],increased
"CC(C)C[C@@H](NC(=O)CN)C(=O)N[C@@H](Cc1ccc(O)cc1)C(=O)N[C@@H](Cc1ccc(O)cc1)C(=O)N[C@@H](Cc1ccccc1)C(=O)O [Peptide P5-1, GlYYF (SEQ ID NO: 2)]",solubility,[2]; [6],3000 µg/mL
"CC(C)C[C@H](NC(=O)CN)C(=O)N[C@@H](Cc1ccc(O)cc1)C(=O)N[C@H](Cc1ccc(O)cc1)C(=O)N[C@@H](Cc1ccccc1)C(=O)O [Peptide P5-3, GLYyF (SEQ ID NO: 2)]",solubility,[2]; [5],3000 µg/mL
"CC(C)C[C@H](NC(=O)CN)C(=O)N[C@@H](Cc1ccc(O)cc1)C(=O)N[C@@H](Cc1ccc(O)cc1)C(=O)N[C@H](Cc1ccccc1)C(=O)O [Peptide P5-4, GLYYf (SEQ ID NO: 2)]",solubility,[2]; [6],3000 µg/mL
"CC(C)C[C@H](NC(=O)CN)C(=O)N[C@@H](Cc1ccc(O)cc1)C(=O)N[C@@H](Cc1ccc(O)cc1)C(=O)N[C@@H](Cc1ccccc1)C(N)=O [Peptide P5-5, GLYYF (SEQ ID NO: 2)-NH2]",proportion of test group improved from sensitive skin to non-sensitive skin,[4]; 2nd visit (4 weeks after application),29.6%
same,proportion of test group improved from sensitive skin to non-sensitive skin,[4]; 3rd visit (8 weeks after application),48.1%
same,sensitive skin to non-sensitive skin in lactic acid test,[4]; 2nd and 3rd visit (FIG. 9),significantly improved
same,expression of P-AMPK,[4]; [7],increased
same,expression of TRPV1,[4]; [7],decreased
same,expression of adiponectin,[4]; [7],increased
same,increase of expression of adiponectin compared to before application,"[4]; twice a day for 8 weeks, biopsy",more than 4 times
same,stability (peptides remaining),[1],improved stability
same,proportion of the region where hair was grown in the growth phase,[3],increased
"CC(C)C[C@H](NC(=O)CN)C(=O)N[C@@H](Cc1ccc(O)cc1)C(=O)N[C@H](Cc1ccc(O)cc1)C(=O)N[C@@H](Cc1ccccc1)C(N)=O [Peptide P5-8, GLYyF (SEQ ID NO: 2)-NH2]",solubility,[2]; [6],3000 µg/mL
